Experimental findings from patent US8221775B2, “Pyrrolin-2-ylamino compounds for combating animal pests” (BASF SE, priority 2008, dated 2012) are described below.

Usually melting point stands for the temperature, or range, at which the solid turns liquid. Take `Brc1ccc(C2CCC(NC(Cc3ccccc3)c3ccccc3)=N2)cc1` (stereo not shown): the melting point was in the range of 130 to 134 °C.
